{"source": "patent US20060275294A1", "about": "“METHOD OF PREVENTION AND TREATMENT OF AGING, AGE-RELATED DISORDERS AND/OR AGE-RELATED MANIFESTATIONS INCLUDING ATHEROSCLEROSIS, PERIPHERAL VASCULAR DISEASE, CORONARY ARTERY DISEASE, OSTEOPOROSIS, ARTHRITIS, TYPE 2 DIABETES, DEMENTIA, ALZHEIMERS DISEASE AND CANCER” (priority 2002, published 2006)", "origin": "cited, not measured here", "key": {"[1]": {"tested_on": "sIL6R", "conditions": "four-day dietary intervention, exchange for LA; cited from earlier work"}, "[2]": {"tested_on": "rat models", "conditions": "meta-analysis of 13 studies; cited from earlier work"}, "[3]": {"tested_on": "esophageal carcinoma cell line CE48T/VGH", "conditions": "cited from earlier work"}, "[4]": {"tested_on": "rat vascular smooth muscle cells", "conditions": "cited from earlier work"}, "[5]": {"tested_on": "NOD/SCID mice engrafted with human primary leukemic cells", "conditions": "mouse, in vivo; cited from earlier work"}, "[6]": {"tested_on": "leukemic cells", "conditions": "concentration- and time-dependent; cited from earlier work"}, "[7]": {"tested_on": "animals with experimental arthritis", "conditions": "prophylactic or therapeutic treatment; cited from earlier work"}, "[8]": {"tested_on": "KK/Ay mice", "conditions": "mouse, in vivo; cited from earlier work"}, "[9]": {"tested_on": "patients with type 2 diabetes", "conditions": "cited from earlier work"}, "[10]": {"conditions": "80 mg daily; cited from earlier work"}, "[11]": {"tested_on": "human T, B and myeloma tumor cells", "conditions": "by promoting apoptosis; cited from earlier work"}, "[12]": {"tested_on": "Zucker lean and fatty rats", "conditions": "50 mg/kg/day vs vehicle; cited from earlier work"}, "[13]": {"tested_on": "patients with primary hypercholesterolemia", "conditions": "cited from earlier work"}, "[14]": {"tested_on": "MCF-7 breast cancer cells", "conditions": "absence of estradiol; cited from earlier work"}, "[15]": {"tested_on": "in-patients with advanced (stage III) Huntington's disease", "conditions": "6 months; cited from earlier work"}, "[16]": {"tested_on": "cultured human astrocytes", "conditions": "cited from earlier work"}, "[17]": {"tested_on": "STAT1 and STAT3", "conditions": "cited from earlier work"}, "[18]": {"tested_on": "experimental diabetic rat model", "conditions": "cited from earlier work"}, "[19]": {"tested_on": "T lymphoma cells", "conditions": "cited from earlier work"}, "[20]": {"tested_on": "IL-1 beta, IL-6, and TNF-alpha", "conditions": "cited from earlier work"}, "[21]": {"tested_on": "orthotopic prostate carcinoma model of PC-3 cells in nude mice", "conditions": "cited from earlier work"}, "[22]": {"tested_on": "cultured human pituitary adenoma cells", "parameters": "mean inhibition of thymidine uptake (+/−SD inhibition of basal) / mean inhibition of thymidine uptake: unit of the concentration uncertain", "conditions": "cited from earlier work"}, "[23]": {"conditions": "54 mg/day; cited from earlier work"}, "[24]": {"tested_on": "New Zealand White rabbits", "conditions": "cited from earlier work"}, "[25]": {"tested_on": "renal cell carcinoma cell line, GRC-1", "conditions": "20 micromol/L, 72 hours; cited from earlier work"}, "[26]": {"biological_target": "T1, epidermal growth factor receptor tyrosine kinase (Rattus norvegicus, UniProt G3V6K6)", "T1 construct": "measured thymidine incorporation in epidermal growth factor-stimulated vascular smooth muscle cells; endogenous in cells; host or cells: aortic vascular smooth muscle cells of SHR and normotensive rats", "T1 sequence (G3V6K6 25-1209)": "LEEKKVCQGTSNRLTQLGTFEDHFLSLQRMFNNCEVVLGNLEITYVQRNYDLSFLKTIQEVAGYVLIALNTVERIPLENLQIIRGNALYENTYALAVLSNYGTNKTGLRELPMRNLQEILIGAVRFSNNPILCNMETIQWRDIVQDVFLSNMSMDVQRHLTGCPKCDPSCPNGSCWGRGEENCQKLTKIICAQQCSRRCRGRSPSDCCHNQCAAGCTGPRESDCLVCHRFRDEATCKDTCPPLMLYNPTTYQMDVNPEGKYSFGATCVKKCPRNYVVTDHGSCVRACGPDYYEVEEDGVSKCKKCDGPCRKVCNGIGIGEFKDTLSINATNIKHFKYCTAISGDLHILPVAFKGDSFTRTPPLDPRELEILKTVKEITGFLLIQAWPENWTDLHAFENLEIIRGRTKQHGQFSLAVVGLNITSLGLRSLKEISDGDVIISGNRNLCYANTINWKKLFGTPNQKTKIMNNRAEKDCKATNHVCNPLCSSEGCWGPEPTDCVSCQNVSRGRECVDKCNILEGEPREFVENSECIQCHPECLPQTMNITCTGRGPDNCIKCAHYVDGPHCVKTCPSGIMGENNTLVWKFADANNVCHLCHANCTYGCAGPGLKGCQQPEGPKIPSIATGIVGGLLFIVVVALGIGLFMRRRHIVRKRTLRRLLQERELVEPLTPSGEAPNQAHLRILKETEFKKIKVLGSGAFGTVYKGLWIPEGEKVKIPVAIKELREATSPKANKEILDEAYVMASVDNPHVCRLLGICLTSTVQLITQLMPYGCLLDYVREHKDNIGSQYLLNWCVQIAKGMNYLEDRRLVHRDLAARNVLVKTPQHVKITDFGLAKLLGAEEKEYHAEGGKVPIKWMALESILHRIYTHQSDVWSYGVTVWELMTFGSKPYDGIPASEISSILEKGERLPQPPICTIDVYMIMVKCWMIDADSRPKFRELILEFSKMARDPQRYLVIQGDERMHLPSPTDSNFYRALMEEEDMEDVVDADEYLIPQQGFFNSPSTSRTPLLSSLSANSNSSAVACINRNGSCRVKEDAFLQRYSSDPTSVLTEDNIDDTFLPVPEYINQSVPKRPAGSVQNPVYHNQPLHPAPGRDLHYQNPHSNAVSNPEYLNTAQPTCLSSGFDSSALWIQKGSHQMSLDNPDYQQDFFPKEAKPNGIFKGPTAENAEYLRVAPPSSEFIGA", "conditions": "SHR vs normotensive Wistar rat cells; cited from earlier work"}, "[27]": {"tested_on": "human prostate carcinoma PC-3 cell line", "conditions": "cited from earlier work"}, "[28]": {"tested_on": "three human pancreatic cancer cell types", "conditions": "three cell lines; read-out: mean IC(50) proliferation; cited from earlier work"}, "[29]": {"tested_on": "mice", "conditions": "cited from earlier work"}, "[30]": {"tested_on": "spontaneously hypertensive rats (SHR)", "conditions": "cited from earlier work"}, "[31]": {"tested_on": "human breast cancer MCF-7 cells", "conditions": "cited from earlier work"}, "[32]": {"conditions": "in vivo, sc; cited from earlier work"}, "[33]": {"tested_on": "aortic strips isolated from virgin and late pregnant Sprague-Dawley rats", "conditions": "1,000 pg/ml, cited from earlier work"}}, "note": "Where two headings read alike, the source gives them in different places."}
{"molecule": "CC/C=C\\C/C=C\\C/C=C\\CCCCCCCC(=O)O", "note": "[ALA, alpha-linolenic acid]", "values": [{"measurement": "reduction of fasting sIL6R concentration", "setting": "[1]", "result": "approximately 11%"}, {"measurement": "ischemia- and reperfusion-induced arrhythmias (incidence of VT and VF)", "setting": "[2]", "result": "not"}]}
{"molecule": "COc1cccc(-c2cc(=O)c3ccccc3o2)c1N", "note": "[PD98059]", "values": [{"measurement": "protection of IL-6 against apoptosis", "setting": "[3]", "result": "completely blocked"}, {"measurement": "expression of IL-6 mRNA induced by Ang II", "setting": "[4]", "result": "completely abolished"}]}
{"molecule": "O=P(O)(O)C(O)(Cc1cnc2ccccn12)P(=O)(O)O", "note": "[YM529]", "values": [{"measurement": "survival", "setting": "[5]", "result": "prolonged the survival"}, {"measurement": "growth of leukemic cells incl. P-gp over-expressing cell line", "setting": "[6]", "result": "inhibited the growth"}, {"measurement": "severity of experimental arthritis", "setting": "[7]", "result": "suppressed the severity of disease"}]}
{"molecule": "CC(C)c1c(C(=O)Nc2ccccc2)c(-c2ccccc2)c(-c2ccc(F)cc2)n1CC[C@@H](O)C[C@@H](O)CC(=O)O", "note": "[atorvastatin]", "values": [{"measurement": "insulin resistance index", "setting": "[8]", "result": "decreased"}, {"measurement": "non-HDL-cholesterol level", "setting": "[8]", "result": "significantly decreased"}, {"measurement": "relative risk reduction in the primary endpoint", "setting": "[9]; 10 mg daily for four years", "result": 37, "unit": "%"}, {"measurement": "rate reduction of major cardiovascular events", "setting": "[9]; 10 mg daily vs placebo", "result": 37, "unit": "%"}, {"measurement": "patients with at least one major cardiovascular event", "setting": "[9]; 10 mg daily, n=1428, median follow-up 3.9 years", "result": 83}, {"measurement": "acute coronary heart disease events reduced", "setting": "[9]; 10 mg daily", "result": 36, "unit": "%"}, {"measurement": "adverse events", "setting": "[9]; 10 mg daily", "result": "No excess of adverse events"}, {"measurement": "coronary re-vascularisations reduced", "setting": "[9]; 10 mg daily", "result": 31, "unit": "%"}, {"measurement": "death rate reduced", "setting": "[9]; 10 mg daily", "result": 27, "unit": "%"}, {"measurement": "major cardiovascular event rate", "setting": "[9]; 10 mg daily", "result": "1.54 per 100 person-years at risk"}, {"measurement": "rate of stroke reduced", "setting": "[9]; 10 mg daily", "result": 48, "unit": "%"}, {"measurement": "carotid IMT", "setting": "[10]", "result": "significant IMT regression"}, {"measurement": "effect on human T, B and myeloma tumor cells", "setting": "[11]", "result": "cytotoxic effect"}, {"measurement": "increase in glucose infusion rate and glucose disposal (Rd)", "setting": "[12]", "result": "approximately two-fold"}, {"measurement": "FMD", "setting": "[13]; 2 weeks", "result": "higher than baseline"}, {"measurement": "IL-6 levels", "setting": "[13]; 3 and 9 months vs baseline", "result": "significantly reduced"}, {"measurement": "sICAM-1 levels", "setting": "[13]; FH 80 mg/day, NFH 10 mg/day, 2 weeks to 9 months vs baseline", "result": "significantly reduced"}, {"measurement": "proliferation of MCF-7 cells", "setting": "[14]", "result": "inhibit the proliferation"}]}
{"molecule": "CC/C=C\\C/C=C\\C/C=C\\C/C=C\\C/C=C\\CCCC(=O)OCC", "note": "[ethyl-EPA, ethyl-ester of eicosapentaenoic acid]", "values": [{"measurement": "orofacial component of the Unified Huntington's Disease Rating Scale", "setting": "[15]", "result": "improved"}]}
{"molecule": "O=c1c(-c2ccc(O)cc2)coc2cc(O)cc(O)c12", "note": "[genistein, 4′,5,7-trihydroxyisoflavone]", "values": [{"measurement": "stimulatory effect of PDGF on sAPPalpha", "setting": "[16]", "result": "blocked"}, {"measurement": "CuLDL-induced enhancement of STAT1 and STAT3 Tyr-phosphorylation and DNA-binding activity", "setting": "[17]", "result": "markedly prevented"}, {"measurement": "retinal albumin by Western blot", "setting": "[18]; 300 mg", "result": "decreased"}, {"measurement": "retinal vascular leakage of radiolabeled sucrose", "setting": "[18]; 150 or 300 mg/kg food, 6 months, vs diabetic control", "result": "significantly less"}, {"measurement": "nuclear NF-kappa B levels", "setting": "[19]", "result": "marked reduction"}, {"measurement": "LPS-induced increase in IL-1 beta, IL-6, and TNF-alpha mRNA levels", "setting": "[20]; 37 microM", "result": "completely or more than 80% blocked"}, {"measurement": "LPS activation of NF-kappa B", "setting": "[20]", "result": "reduced"}, {"measurement": "LPS-induced IL-6 protein synthesis and IL-6 bioactivity", "setting": "[20]", "result": "reduced to baseline levels"}, {"measurement": "inhibition of primary tumor growth", "setting": "[21]; combined with radiation 5 Gy", "result": 87, "unit": "%"}, {"measurement": "inhibition of primary tumor growth", "setting": "[21]; genistein alone, 5 mg/d p.o.", "result": 30, "unit": "%"}, {"measurement": "size of lymph nodes", "setting": "[21]; genistein alone", "result": "increased the size of lymph nodes"}, {"measurement": "mean inhibition of thymidine uptake (+/−SD inhibition of basal)", "setting": "[22]; 74 (unit uncertain)", "result": "61.96+/−18.96%"}, {"measurement": "mean inhibition of thymidine uptake", "setting": "[22]; 740 (unit uncertain)", "result": "92.65+/−8.59%"}, {"measurement": "Epidermal growth factor stimulated thymidine uptake", "setting": "[22]; clinically nonfunctioning adenomas", "result": "inhibited"}, {"measurement": "attenuating menopause-related bone loss", "setting": "[23]", "result": "as effective as hormone replacement therapy"}, {"measurement": "average cross sectional area of atherosclerotic lesion", "setting": "[24]; hyperlipidemic plus genistein diet, 4 and half months", "result": 0.997, "unit": "mm2"}, {"measurement": "MMP-3 expression", "setting": "[24]; western blotting, vs HD group", "result": "reduction"}, {"measurement": "band of p27, Western blot", "setting": "[25]", "result": "65.4+/−4.7 gray scale value"}, {"measurement": "cells in G2 phase", "setting": "[25]", "result": 26.2, "unit": "%"}, {"measurement": "cells in G(1) phase", "setting": "[25]", "result": 73.8, "unit": "%"}, {"measurement": "50% inhibitory dose (IC50) for thymidine incorporation", "setting": "[26]", "result": "higher for the SHR vascular smooth muscle cells"}, {"measurement": "IL-6- and OM-mediated effects (growth, resistance to etoposide and cisplatin)", "setting": "[27]", "result": "inhibited"}, {"measurement": "IC50", "setting": "[28]", "result": 223, "unit": "µM"}, {"measurement": "expression of IL-6 mRNA induced by Ang II", "setting": "[4]", "result": "completely abolished"}, {"measurement": "serum levels of autoantibodies to collagen II", "setting": "[29]; immunized mice", "result": "significantly lower"}, {"measurement": "DTH reaction to oxazolone and granulocyte-mediated response", "setting": "[29]; vs control mice", "result": "significantly suppressed"}, {"measurement": "wall thickness of the basilar artery", "setting": "[30]; 1 mg/kg chow, 2 months", "result": "reduced the wall thickness significantly"}, {"measurement": "vasodilatation induced by ACh and Y-26763", "setting": "[30]", "result": "significantly improved"}, {"measurement": "growth of MCF-7 cells", "setting": "[31]", "result": "significantly inhibit the growth"}]}
{"molecule": "IL-6: interleukin-6 cytokine", "values": [{"measurement": "adverse effects of subcutaneous administration", "setting": "[32]", "result": "cardiac arrhythmias, hepatotoxicity"}, {"measurement": "enhancement of Phe contraction", "setting": "[33]; pregnant rats", "result": "10.6±0.7 ×104 N/m2"}, {"measurement": "enhancement of Phe contraction", "setting": "[33]; virgin rats", "result": "7.5±0.4 ×104 N/m2"}]}
